Test results taken from the NIST ThermoML archive (doi:10.1021/je900596d).

Conditions: 263.49 K, Liquid, Vibrating tube method

FC(F)=C(F)C(F)(F)F [hexafluoropropene]
Conditions | mass density [kg/m3]
1283.2 kPa | 1467.96
1321.2 kPa | 1468.22
1359 kPa | 1468.47
1389.9 kPa | 1468.56
1425.3 kPa | 1468.74
1461.6 kPa | 1468.94
1497.9 kPa | 1469.16
1539.1 kPa | 1469.32
1576.4 kPa | 1469.48
1610 kPa | 1469.68
1646.8 kPa | 1469.96
1683.2 kPa | 1470.1
1718.2 kPa | 1470.09
1769.7 kPa | 1470.55
1804.7 kPa | 1470.64
1839 kPa | 1470.88
1873.5 kPa | 1471.02
1912.3 kPa | 1471.22
1948.3 kPa | 1471.32
1983.7 kPa | 1471.42
2017.6 kPa | 1471.69
2077.4 kPa | 1472.02
2137.9 kPa | 1472.31
2195.3 kPa | 1472.62
2252 kPa | 1472.79
2309.6 kPa | 1473.18
2367.3 kPa | 1473.43
2430.6 kPa | 1473.71
2489.1 kPa | 1474.06
2551.6 kPa | 1474.23
2614.8 kPa | 1474.71
2675.4 kPa | 1474.88
2733.4 kPa | 1475.13
2790.5 kPa | 1475.34
2848.5 kPa | 1475.67
2905.6 kPa | 1475.93
2969.6 kPa | 1476.29
3029.8 kPa | 1476.52
3093.3 kPa | 1476.76
3152.2 kPa | 1477.08
3211.2 kPa | 1477.32
3270.4 kPa | 1477.64
3327.3 kPa | 1477.91
3384.6 kPa | 1478.13
3443.8 kPa | 1478.55
3501.1 kPa | 1478.67
3558.2 kPa | 1479.03
3616.7 kPa | 1479.25
3674.3 kPa | 1479.49
3737.9 kPa | 1479.79
3796.5 kPa | 1480.12
3856.1 kPa | 1480.36
3913.3 kPa | 1480.59
3976.1 kPa | 1480.92
4010.9 kPa | 1481.02
4071.8 kPa | 1481.39
4136 kPa | 1481.55
4197.2 kPa | 1481.92
4261.2 kPa | 1482.25
4322.1 kPa | 1482.4
4382.2 kPa | 1482.79
4447.1 kPa | 1482.98
4507.5 kPa | 1483.36
4568.4 kPa | 1483.61
4635.4 kPa | 1483.93
4696.7 kPa | 1484.25
4757 kPa | 1484.43
4816.4 kPa | 1484.73
4881.5 kPa | 1484.9
4946.3 kPa | 1485.39
5104.8 kPa | 1485.97
5190.1 kPa | 1486.45
5273.8 kPa | 1486.72
5369.3 kPa | 1487.1
5456.3 kPa | 1487.53
5538.4 kPa | 1487.84
5622.6 kPa | 1488.18
5711.1 kPa | 1488.61
5793.3 kPa | 1489.06
5877.9 kPa | 1489.31
5963.2 kPa | 1489.67
6047.6 kPa | 1490.11
6129.9 kPa | 1490.42
6210.8 kPa | 1490.7
6292.4 kPa | 1491.15
6372.6 kPa | 1491.45
6452.8 kPa | 1491.79
6538.6 kPa | 1492.18
6628.4 kPa | 1492.5
6710.5 kPa | 1492.84
6798.1 kPa | 1493.29
6878.8 kPa | 1493.62
6965.4 kPa | 1493.98
7052.5 kPa | 1494.32
7137.8 kPa | 1494.61
7224.6 kPa | 1495
7315.1 kPa | 1495.44
7400.9 kPa | 1495.77
7483.2 kPa | 1496.09
7573.2 kPa | 1496.53
7663 kPa | 1496.86
7746.1 kPa | 1497.24
7835.3 kPa | 1497.57
7920.3 kPa | 1497.86
8008.2 kPa | 1498.24
8089.2 kPa | 1498.57
8180.4 kPa | 1498.95
8262.3 kPa | 1499.34
8343 kPa | 1499.65
8431 kPa | 1499.96
8519.4 kPa | 1500.29
8604.9 kPa | 1500.75
8687 kPa | 1500.96
8773.6 kPa | 1501.36
8859.6 kPa | 1501.69
8940.8 kPa | 1502.04
9033.4 kPa | 1502.38
9121.4 kPa | 1502.79
9202.4 kPa | 1503.09
9288.6 kPa | 1503.44
9371.7 kPa | 1503.79
9460.9 kPa | 1504.15
9501.4 kPa | 1504.21
9543.4 kPa | 1504.4
9588.9 kPa | 1504.56
9629.7 kPa | 1504.74
9675.2 kPa | 1504.91
9717.5 kPa | 1505.02
9760.3 kPa | 1505.19
9806 kPa | 1505.39
9849.5 kPa | 1505.65
9893.1 kPa | 1505.74
9933.7 kPa | 1505.89
